ChEMBL document CHEMBL3991601, “The target landscape of clinical kinase drugs” (Science, 2017)
The source made the active and inactive calls. Cut-off read from the data, not from the text of the source, for most assays here: actives have a measured Kd and inactives only a lower limit.

How the values were obtained:
Activin receptor type-2B = Activin receptor type-2B (Homo sapiens, UniProt Q13705)
Adenosine kinase = Adenosine kinase (Homo sapiens, UniProt P55263)
[1] = target: Tyrosine-protein kinase Fyn (Homo sapiens, UniProt P06241)
[2] = target: T1, Mitogen-activated protein kinase kinase kinase 2 (Homo sapiens, UniProt Q9Y2U5)
T1 sequence (Q9Y2U5 whole entry): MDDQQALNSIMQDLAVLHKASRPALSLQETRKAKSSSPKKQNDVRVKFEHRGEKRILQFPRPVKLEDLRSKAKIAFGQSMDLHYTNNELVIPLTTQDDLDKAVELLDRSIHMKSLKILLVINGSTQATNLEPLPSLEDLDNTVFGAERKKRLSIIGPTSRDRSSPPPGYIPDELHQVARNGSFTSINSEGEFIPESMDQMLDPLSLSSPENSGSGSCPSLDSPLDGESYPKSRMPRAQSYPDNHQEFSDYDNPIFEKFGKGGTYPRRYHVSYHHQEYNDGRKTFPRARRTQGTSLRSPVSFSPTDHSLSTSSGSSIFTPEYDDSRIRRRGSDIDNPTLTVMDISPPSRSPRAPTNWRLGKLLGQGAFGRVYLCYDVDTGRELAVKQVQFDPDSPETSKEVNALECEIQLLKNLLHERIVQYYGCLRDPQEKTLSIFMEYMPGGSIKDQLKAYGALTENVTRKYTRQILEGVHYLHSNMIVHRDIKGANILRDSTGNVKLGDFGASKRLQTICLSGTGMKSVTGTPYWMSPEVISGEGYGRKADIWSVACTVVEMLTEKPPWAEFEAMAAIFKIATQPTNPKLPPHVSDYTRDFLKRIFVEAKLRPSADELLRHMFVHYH

[3] = target: T2, Serine/threonine-protein kinase Nek1 (Homo sapiens, UniProt Q96PY6)
T2 sequence (Q96PY6 whole entry): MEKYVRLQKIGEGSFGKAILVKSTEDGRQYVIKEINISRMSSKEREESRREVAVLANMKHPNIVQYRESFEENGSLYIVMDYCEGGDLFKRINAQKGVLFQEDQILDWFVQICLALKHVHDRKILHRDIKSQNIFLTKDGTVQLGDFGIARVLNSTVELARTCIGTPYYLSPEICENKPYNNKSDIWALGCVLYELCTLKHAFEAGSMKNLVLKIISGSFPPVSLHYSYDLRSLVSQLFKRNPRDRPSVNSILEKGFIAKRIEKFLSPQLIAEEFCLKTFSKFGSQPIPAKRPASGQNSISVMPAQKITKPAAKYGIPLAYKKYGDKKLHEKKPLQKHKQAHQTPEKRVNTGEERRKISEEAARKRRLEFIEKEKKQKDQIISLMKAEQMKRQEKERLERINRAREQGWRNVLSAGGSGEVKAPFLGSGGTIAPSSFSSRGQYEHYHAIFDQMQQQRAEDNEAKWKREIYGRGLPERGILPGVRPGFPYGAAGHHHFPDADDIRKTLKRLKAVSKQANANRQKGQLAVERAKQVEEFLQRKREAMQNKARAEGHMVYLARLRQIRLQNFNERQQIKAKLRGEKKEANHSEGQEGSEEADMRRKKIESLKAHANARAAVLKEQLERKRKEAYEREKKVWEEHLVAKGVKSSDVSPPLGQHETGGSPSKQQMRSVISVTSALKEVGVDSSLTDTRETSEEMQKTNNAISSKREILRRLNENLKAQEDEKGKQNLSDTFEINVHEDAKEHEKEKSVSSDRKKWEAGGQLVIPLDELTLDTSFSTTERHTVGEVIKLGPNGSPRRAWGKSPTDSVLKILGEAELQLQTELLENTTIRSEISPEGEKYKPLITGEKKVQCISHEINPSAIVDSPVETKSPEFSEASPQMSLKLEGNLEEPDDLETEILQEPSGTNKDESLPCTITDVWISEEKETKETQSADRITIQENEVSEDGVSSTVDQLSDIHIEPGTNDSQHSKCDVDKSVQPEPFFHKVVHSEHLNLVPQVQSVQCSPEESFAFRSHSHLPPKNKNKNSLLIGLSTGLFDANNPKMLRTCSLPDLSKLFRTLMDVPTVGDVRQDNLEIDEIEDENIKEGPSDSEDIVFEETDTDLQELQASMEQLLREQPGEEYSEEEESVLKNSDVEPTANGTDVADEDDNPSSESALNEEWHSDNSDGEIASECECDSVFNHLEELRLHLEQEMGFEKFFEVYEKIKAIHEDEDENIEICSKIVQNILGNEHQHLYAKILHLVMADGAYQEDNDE

[4] = target: T3, Serine/threonine-protein kinase D2 (Homo sapiens, UniProt Q9BZL6)
T3 sequence (Q9BZL6 whole entry): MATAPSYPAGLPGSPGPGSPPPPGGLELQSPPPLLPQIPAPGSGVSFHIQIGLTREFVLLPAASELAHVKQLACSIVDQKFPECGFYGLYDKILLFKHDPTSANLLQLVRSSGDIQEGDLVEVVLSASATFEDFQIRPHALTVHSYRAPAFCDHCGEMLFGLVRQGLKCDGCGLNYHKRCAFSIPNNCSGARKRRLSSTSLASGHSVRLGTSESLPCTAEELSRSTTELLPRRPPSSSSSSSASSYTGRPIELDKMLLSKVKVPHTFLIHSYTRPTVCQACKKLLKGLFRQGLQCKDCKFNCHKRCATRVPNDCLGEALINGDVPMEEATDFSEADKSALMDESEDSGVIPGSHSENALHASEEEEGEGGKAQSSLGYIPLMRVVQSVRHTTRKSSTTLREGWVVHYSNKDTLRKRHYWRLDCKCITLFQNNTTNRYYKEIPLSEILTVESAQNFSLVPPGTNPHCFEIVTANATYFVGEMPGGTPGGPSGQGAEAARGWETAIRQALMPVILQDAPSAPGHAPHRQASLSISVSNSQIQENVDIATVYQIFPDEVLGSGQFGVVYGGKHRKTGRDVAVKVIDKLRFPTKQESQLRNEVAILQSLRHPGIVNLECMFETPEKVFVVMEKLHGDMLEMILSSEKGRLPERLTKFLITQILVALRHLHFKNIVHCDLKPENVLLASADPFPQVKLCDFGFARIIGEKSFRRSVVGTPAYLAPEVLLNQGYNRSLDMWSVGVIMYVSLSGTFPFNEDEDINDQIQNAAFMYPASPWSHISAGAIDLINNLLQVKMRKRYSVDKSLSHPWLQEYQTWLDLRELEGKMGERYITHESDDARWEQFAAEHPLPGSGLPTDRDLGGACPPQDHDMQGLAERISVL

TGF-beta receptor type-2 = TGF-beta receptor type-2 (Homo sapiens, UniProt P37173)
Activated CDC42 kinase 1 = Activated CDC42 kinase 1 (Homo sapiens, UniProt Q07912)
[5] = target: Cyclin-dependent kinase 3 (Homo sapiens, UniProt Q00526)
Note: in the data inactive means no Kd found up to 30 µM.

Chain of Activated CDC42 kinase 1 (Q07912 whole entry): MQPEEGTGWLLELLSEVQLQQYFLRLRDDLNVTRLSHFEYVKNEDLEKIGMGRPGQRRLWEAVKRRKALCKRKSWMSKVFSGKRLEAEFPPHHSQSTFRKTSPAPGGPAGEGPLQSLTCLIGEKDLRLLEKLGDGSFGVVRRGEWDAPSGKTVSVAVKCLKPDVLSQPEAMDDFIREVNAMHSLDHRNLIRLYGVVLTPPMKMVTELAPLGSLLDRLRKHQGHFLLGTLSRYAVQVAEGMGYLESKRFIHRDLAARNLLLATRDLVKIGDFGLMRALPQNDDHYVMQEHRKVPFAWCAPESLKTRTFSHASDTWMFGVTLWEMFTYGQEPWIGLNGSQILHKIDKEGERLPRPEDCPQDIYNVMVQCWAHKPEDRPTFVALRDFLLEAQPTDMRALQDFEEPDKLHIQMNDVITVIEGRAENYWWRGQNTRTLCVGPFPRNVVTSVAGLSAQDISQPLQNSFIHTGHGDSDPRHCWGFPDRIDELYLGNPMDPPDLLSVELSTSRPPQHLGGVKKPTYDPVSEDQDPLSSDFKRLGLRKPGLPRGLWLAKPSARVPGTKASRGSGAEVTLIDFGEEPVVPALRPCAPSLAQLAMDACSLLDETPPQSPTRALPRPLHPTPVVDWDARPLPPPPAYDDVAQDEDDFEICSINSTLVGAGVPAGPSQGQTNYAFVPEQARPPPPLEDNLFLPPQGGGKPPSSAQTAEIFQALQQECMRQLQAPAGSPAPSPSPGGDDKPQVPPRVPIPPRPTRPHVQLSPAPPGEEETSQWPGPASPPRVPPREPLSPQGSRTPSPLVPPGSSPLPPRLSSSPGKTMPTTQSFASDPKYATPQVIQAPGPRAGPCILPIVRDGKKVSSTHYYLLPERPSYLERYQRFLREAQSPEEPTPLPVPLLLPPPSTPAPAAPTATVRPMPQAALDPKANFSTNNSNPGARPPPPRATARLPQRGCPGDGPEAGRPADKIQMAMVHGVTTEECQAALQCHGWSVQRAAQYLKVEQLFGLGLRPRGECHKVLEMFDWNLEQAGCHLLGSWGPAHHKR
Chain of Cyclin-dependent kinase 3 (Q00526 whole entry): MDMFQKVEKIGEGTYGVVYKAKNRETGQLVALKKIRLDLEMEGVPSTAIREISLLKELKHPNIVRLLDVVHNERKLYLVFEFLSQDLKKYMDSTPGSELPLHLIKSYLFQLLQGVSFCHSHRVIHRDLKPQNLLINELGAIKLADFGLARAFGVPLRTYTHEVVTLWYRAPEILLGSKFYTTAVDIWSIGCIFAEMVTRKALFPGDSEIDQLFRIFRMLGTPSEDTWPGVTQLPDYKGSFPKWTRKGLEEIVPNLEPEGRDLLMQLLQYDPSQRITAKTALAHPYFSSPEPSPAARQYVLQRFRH
Chain of Adenosine kinase (P55263 whole entry): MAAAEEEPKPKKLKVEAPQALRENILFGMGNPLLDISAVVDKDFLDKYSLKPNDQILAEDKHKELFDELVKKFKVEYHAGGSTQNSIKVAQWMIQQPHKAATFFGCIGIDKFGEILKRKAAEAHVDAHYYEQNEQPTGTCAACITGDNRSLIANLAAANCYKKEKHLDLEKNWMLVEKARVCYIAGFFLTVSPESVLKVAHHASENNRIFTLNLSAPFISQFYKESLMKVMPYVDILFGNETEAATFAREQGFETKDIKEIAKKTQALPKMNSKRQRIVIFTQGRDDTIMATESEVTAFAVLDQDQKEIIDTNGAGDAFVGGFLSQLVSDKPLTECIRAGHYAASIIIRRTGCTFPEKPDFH
Chain of TGF-beta receptor type-2 (P37173 whole entry): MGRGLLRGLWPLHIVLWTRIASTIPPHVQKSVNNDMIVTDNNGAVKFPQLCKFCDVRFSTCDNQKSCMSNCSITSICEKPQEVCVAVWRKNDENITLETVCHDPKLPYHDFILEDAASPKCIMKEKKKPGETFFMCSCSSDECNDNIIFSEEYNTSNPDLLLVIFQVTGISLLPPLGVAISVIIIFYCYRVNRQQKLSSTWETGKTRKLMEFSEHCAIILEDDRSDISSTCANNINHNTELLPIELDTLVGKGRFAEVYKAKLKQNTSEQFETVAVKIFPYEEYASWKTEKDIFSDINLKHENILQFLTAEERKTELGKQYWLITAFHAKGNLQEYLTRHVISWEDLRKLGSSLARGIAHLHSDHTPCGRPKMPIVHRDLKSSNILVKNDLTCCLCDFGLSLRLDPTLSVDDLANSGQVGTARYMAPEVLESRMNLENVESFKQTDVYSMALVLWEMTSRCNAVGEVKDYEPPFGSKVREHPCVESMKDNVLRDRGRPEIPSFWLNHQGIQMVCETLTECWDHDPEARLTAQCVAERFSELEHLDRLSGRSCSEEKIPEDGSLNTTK
Chain of Activin receptor type-2B (Q13705 whole entry): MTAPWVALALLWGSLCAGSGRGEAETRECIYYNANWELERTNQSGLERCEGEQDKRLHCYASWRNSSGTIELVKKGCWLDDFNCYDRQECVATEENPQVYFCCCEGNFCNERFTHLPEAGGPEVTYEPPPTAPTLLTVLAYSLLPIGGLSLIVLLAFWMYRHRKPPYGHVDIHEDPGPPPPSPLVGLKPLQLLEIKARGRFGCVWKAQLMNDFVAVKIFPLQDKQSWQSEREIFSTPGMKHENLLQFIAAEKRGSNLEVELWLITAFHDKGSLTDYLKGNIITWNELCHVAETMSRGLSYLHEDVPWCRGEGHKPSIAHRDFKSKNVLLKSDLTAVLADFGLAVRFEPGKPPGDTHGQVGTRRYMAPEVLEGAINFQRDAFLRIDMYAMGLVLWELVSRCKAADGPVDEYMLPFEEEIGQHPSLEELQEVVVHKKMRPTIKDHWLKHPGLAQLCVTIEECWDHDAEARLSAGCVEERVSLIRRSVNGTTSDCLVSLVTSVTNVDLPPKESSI
Chain of Tyrosine-protein kinase Fyn (P06241 whole entry): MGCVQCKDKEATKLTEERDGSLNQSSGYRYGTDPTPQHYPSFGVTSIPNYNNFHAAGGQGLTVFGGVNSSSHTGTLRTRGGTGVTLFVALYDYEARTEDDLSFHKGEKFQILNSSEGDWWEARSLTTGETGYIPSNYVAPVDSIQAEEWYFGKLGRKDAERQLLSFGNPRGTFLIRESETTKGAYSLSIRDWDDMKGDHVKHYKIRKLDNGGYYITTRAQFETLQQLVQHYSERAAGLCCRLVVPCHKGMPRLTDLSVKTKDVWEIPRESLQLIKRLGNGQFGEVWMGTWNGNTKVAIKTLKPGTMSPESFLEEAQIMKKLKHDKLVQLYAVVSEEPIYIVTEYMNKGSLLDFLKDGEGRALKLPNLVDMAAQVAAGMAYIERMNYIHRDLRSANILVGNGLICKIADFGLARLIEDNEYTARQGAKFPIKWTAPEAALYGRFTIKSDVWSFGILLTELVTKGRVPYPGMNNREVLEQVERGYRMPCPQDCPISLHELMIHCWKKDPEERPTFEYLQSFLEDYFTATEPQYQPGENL

| SMILES | Kd (Adenosine kinase) | Kd (Activin receptor type-2B) | Kd [1] | Kd [2] | Kd [3] | Kd [4] | Kd (TGF-beta receptor type-2) | Kd (Activated CDC42 kinase 1) | Kd [5] |
| --- | --- | --- | --- | --- | --- | --- | --- | --- | --- |
| CCN1CCN(Cc2ccc(Nc3ncc(F)c(-c4cc(F)c5nc(C)n(C(C)C)c5c4)n3)nc2)CC1 [ABEMACICLIB] | > 30 µM (inactive) | > 30 µM (inactive) | > 30 µM (inactive) | > 30 µM (inactive) | > 30 µM (inactive) | 2.06 µM (active) | > 30 µM (inactive) | > 30 µM (inactive) |  |
| C=CCn1c(=O)c2cnc(Nc3ccc(N4CCN(C)CC4)cc3)nc2n1-c1cccc(C(C)(C)O)n1 [ADAVOSERTIB] | 0.013 µM (active) | > 30 µM (inactive) |  | > 30 µM (inactive) | > 30 µM (inactive) | > 30 µM (inactive) | > 30 µM (inactive) |  | > 30 µM (inactive) |
| CN(C)C/C=C/C(=O)Nc1cc2c(Nc3ccc(F)c(Cl)c3)ncnc2cc1O[C@H]1CCOC1 [AFATINIB] | 3.49 µM (active) |  |  |  |  |  |  |  |  |
| S=C(NCc1ccc2c(c1)OCO2)N1CCN(c2ncnc3c2oc2ccccc23)CC1 [AMUVATINIB] | > 30 µM (inactive) | > 30 µM (inactive) | > 30 µM (inactive) | > 30 µM (inactive) | > 30 µM (inactive) | > 30 µM (inactive) |  | > 30 µM (inactive) | > 30 µM (inactive) |
| NC[C@@](O)(c1ccc(Cl)cc1)c1ccc(-c2cn[nH]c2)cc1 [AT-13148] | > 30 µM (inactive) | > 30 µM (inactive) | > 30 µM (inactive) | > 30 µM (inactive) | > 30 µM (inactive) | > 30 µM (inactive) |  | > 30 µM (inactive) | > 30 µM (inactive) |
| CCN(CCCOc1ccc2c(Nc3cc(CC(=O)Nc4cccc(F)c4)n[nH]3)ncnc2c1)CCOP(=O)(O)O [BARASERTIB] | > 30 µM (inactive) | > 30 µM (inactive) |  | > 30 µM (inactive) | > 30 µM (inactive) | > 30 µM (inactive) | > 30 µM (inactive) |  | > 30 µM (inactive) |
| COc1cc2c(Oc3ccc4[nH]c(C)cc4c3F)ncnc2cc1OCCCN1CCCC1 [CEDIRANIB] | > 30 µM (inactive) |  | > 30 µM (inactive) |  |  |  |  |  |  |
| Cn1c(=O)n(-c2ccc(C(C)(C)C#N)cc2)c2c3cc(-c4cnc5ccccc5c4)ccc3ncc21 [DACTOLISIB] | > 30 µM (inactive) | > 30 µM (inactive) |  | > 30 µM (inactive) | > 30 µM (inactive) | > 30 µM (inactive) | > 30 µM (inactive) |  | > 30 µM (inactive) |
| CNC(=O)c1ccc(Nc2ncc(C(F)(F)F)c(NCc3nccnc3N(C)S(C)(=O)=O)n2)cc1 [DEFACTINIB] |  | > 30 µM (inactive) | > 30 µM (inactive) | > 30 µM (inactive) | > 30 µM (inactive) | > 30 µM (inactive) | > 30 µM (inactive) | > 30 µM (inactive) | > 30 µM (inactive) |
| O=S(=O)(c1cccc2cnccc12)N1CCCNCC1 [FASUDIL] | > 30 µM (inactive) | > 30 µM (inactive) | > 30 µM (inactive) | > 30 µM (inactive) | > 30 µM (inactive) | 6.42 µM (active) | > 30 µM (inactive) |  | > 30 µM (inactive) |
| C[C@]1(O)C[C@@H](c2nc(-c3ccc4ccc(-c5ccccc5)nc4c3)c3c(N)nccn32)C1 [LINSITINIB] | > 30 µM (inactive) | > 30 µM (inactive) |  | > 30 µM (inactive) | > 30 µM (inactive) |  | > 30 µM (inactive) | > 30 µM (inactive) | > 30 µM (inactive) |
| N#CCNC(=O)c1ccc(-c2ccnc(Nc3ccc(N4CCOCC4)cc3)n2)cc1 [MOMELOTINIB] | > 30 µM (inactive) | > 30 µM (inactive) | > 30 µM (inactive) | > 30 µM (inactive) | > 30 µM (inactive) | 0.531 µM (active) | > 30 µM (inactive) | > 30 µM (inactive) |  |
| CC1(C)CNc2cc(NC(=O)c3cccnc3NCc3ccncc3)ccc21 [MOTESANIB] | > 30 µM (inactive) |  |  |  |  |  |  |  |  |
| C=CC(=O)Nc1cc(Nc2nccc(-c3cn(C)c4ccccc34)n2)c(OC)cc1N(C)CCN(C)C [OSIMERTINIB] | > 30 µM (inactive) | > 30 µM (inactive) | > 30 µM (inactive) | > 30 µM (inactive) | > 30 µM (inactive) | > 30 µM (inactive) |  | > 30 µM (inactive) | > 30 µM (inactive) |
| CN(c1ncccc1CNc1nc(Nc2ccc3c(c2)CC(=O)N3)ncc1C(F)(F)F)S(C)(=O)=O [PF-00562271] | > 30 µM (inactive) | > 30 µM (inactive) |  | > 30 µM (inactive) | > 30 µM (inactive) |  | > 30 µM (inactive) |  | 3.43 µM (active) |
| Cn1cnc2c(F)c(Nc3ccc(Br)cc3Cl)c(C(=O)NOCCO)cc21 [SELUMETINIB] | > 30 µM (inactive) |  |  |  |  |  |  |  |  |
| COc1cc2c(N3CCN(C(=O)Nc4ccc(OC(C)C)cc4)CC3)ncnc2cc1OCCCN1CCCCC1 [TANDUTINIB] | > 30 µM (inactive) |  |  |  |  |  |  |  |  |

Second part, led by results:

| Kd (Adenosine kinase) | SMILES | Kd (Activin receptor type-2B) | Kd [1] | Kd [2] | Kd [3] | Kd [4] | Kd (TGF-beta receptor type-2) | Kd (Activated CDC42 kinase 1) | Kd [5] |
| --- | --- | --- | --- | --- | --- | --- | --- | --- | --- |
| > 30 µM (inactive) | C[C@@]1(C(=O)Nc2ccc(F)nc2)CCCN1c1nc(Nc2cc(C3CC3)n[nH]2)c2cccn2n1 [BMS-754807] |  |  |  |  |  |  |  |  |
| > 30 µM (inactive) | CC(C)(O)CC(=O)NCCn1ccc2ncnc(Nc3ccc(Oc4cccc(C(F)(F)F)c4)c(Cl)c3)c21 [TAK-285] | > 30 µM (inactive) | > 30 µM (inactive) | > 30 µM (inactive) | > 30 µM (inactive) |  | > 30 µM (inactive) | > 30 µM (inactive) | > 30 µM (inactive) |
| > 30 µM (inactive) | NC(=O)c1ccc(N(C(N)=O)c2c(F)cccc2F)nc1-c1ccc(F)cc1F [VX-702] |  | > 30 µM (inactive) | > 30 µM (inactive) | > 30 µM (inactive) | > 30 µM (inactive) | > 30 µM (inactive) | > 30 µM (inactive) | > 30 µM (inactive) |
